What all share (assay type): cell-based
One assay has as its system Citrobacter freundii. Description: MIC and MBC, broth microdilution (Example 4, Table 3). To be noted: Citrobacter freundii CDC-157 (NDM-1).
Another assay concerns Fusobacterium spp. Description: MIC, agar dilution, anaerobic bacteria (Example 9, Tables 20, 25). A general note: In agar dilution the substance is mixed into plates at graded concentrations.
The test system of assay [1] is Serine-carbapenemase producing strains (N = 19). Description: MIC50/MIC90 for carbapenemase-producing isolates (Example 5, Table 6). More on the design: unit not given here. To be noted: Serine-carbapenemase (N = 19): KPC-2 (7), KPC-3 (8), KPC-38 (1), OXA-48 (2), OXA-181 (1).

In brackets after ≈: the same amount, converted by molar mass.

Take `CC(C)(O/N=C(\C(=O)N[C@@H]1C(=O)N2C(C(=O)[O-])=C(C[n+]3ccccc3)CS[C@H]12)c1csc(N)n1)C(=O)O` [CAZ, ceftazidime]: in the assay with Citrobacter freundii, the MBC (commonly the lowest tested concentration that kills the bacteria rather than only halting them) is above 128 µg/mL and the MIC (as a rule, the lowest concentration found to suppress growth) was above 128 µg/mL.

`Cc1ncc([N+](=O)[O-])n1CCO` [Metronidazole]: the MIC50 against Fusobacterium spp. (Fusobacterium spp.) is at most 0.12 µg/mL. For the same molecule, the MICrange against Fusobacterium spp. (Fusobacterium spp.) was at most 0.12 to 0.5 µg/mL. In the assay with Fusobacterium spp. (Fusobacterium, Fusobacterium spp.), this molecule came in with an MIC90 of 0.25 µg/mL (≈ 1.46 µM). For the same molecule, the minimum inhibitory concentration (MIC) with Fusobacterium spp. (Fusobacterium, KUB No. 6692 Fusobacterium sp.) is at most 0.12 µg/mL; against Fusobacterium spp. (Fusobacterium, KUB No. 6693 Fusobacterium nucleatium), 0.25 µg/mL (≈ 1.46 µM); in the assay with Fusobacterium spp. (Fusobacterium, KUB No. 6708 Fusobacterium necrophorun), at most 0.12 µg/mL; against Fusobacterium spp. (Fusobacterium, KUB No. 6715 Fusobacterium sp.) it was at most 0.12 µg/mL; in the assay with Fusobacterium spp. (Fusobacterium, KUB No. 6716 Fusobacterium nuncleatum), at most 0.12 µg/mL; against Fusobacterium spp. (Fusobacterium, KUB No. 6719 Fusobacterium sp.), at most 0.12 µg/mL. For the same molecule, the minimal inhibitory concentration (MIC) against Fusobacterium spp. (Fusobacterium, KUB No. 6725 Fusobacterium sp.) is at most 0.12 µg/mL; in the assay with Fusobacterium spp. (KUB No. 2741 Fusobacterium varium ATCC 27725), 0.25 µg/mL (≈ 1.46 µM); against Fusobacterium spp. (KUB No. 2742 Fusobacterium nucleatum ATCC 25586), at most 0.12 µg/mL; with Fusobacterium spp. (KUB No. 6694 Fusobacterium necrophorum) it was at most 0.12 µg/mL; in the assay on Fusobacterium spp. (KUB No. 6695 Fusobacterium necrophorum) it was 0.5 µg/mL (≈ 2.92 µM); against Fusobacterium spp. (KUB No. 6696 Fusobacterium necrophorum), at most 0.12 µg/mL. The MIC is at most 0.12 µg/mL against Fusobacterium spp. (KUB No. 6697 Fusobacterium nucleatum); at most 0.12 µg/mL in the assay on Fusobacterium spp. (KUB No. 6698 Fusobacterium nucleatum); at most 0.12 µg/mL in the assay on Fusobacterium spp. (KUB No. 6699 Fusobacterium necrophorum); at most 0.12 µg/mL in the assay on Fusobacterium spp. (KUB No. 6700 Fusobacterium nucleatum); 0.25 µg/mL (≈ 1.46 µM) against Fusobacterium spp. (KUB No. 6702 Fusobacterium necrophorum); 0.25 µg/mL (≈ 1.46 µM) against Fusobacterium spp. (KUB No. 6710 Fusobacterium necrophorum). The MIC in the assay on Fusobacterium spp. (KUB No. 6720 Fusobacterium nucleatum) and in the assay on Fusobacterium spp. (KUB No. 6724 Fusobacterium nucleatum) was at most 0.12 µg/mL each time.

In assay [1], colistin showed an MIC50 of 0.25 and an MIC90 of 2.
